Measurements from paper PMC8145327, “S100P Interacts with p53 while Pentamidine Inhibits This Interaction” (Biomolecules, 2021).

Target: T1, S100P (Homo sapiens, UniProt P25815)
T1 construct: 15N-labeled human S100P (95 amino acid residues)
T1 sequence (P25815 1-95): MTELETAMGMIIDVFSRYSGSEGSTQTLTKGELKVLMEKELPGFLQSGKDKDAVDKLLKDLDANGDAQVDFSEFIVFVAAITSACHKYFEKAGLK
Assay: 1H-15N HSQC NMR titration (chemical shift perturbation)
Type: binding

Work on `N=C(N)c1ccc(OCCCCCOc2ccc(C(=N)N)cc2)cc1` [pentamidine] yielded a Kd of 48.7 µM.
